Measured values as given in article PMC11558128 (Advanced Science, 2024).
Read-outs that look alike come from different tables or passages of the source. Positions of bridges follow the written chain, without caps; N, C: chain ends. Residues, ends and D or L forms follow the SMILES beside them.

Key:
rKv4.2 = molecular target: T1, rKv4.2 (Rattus norvegicus, UniProt Q63881); assay: cell-based; conditions: for IC50: whole-cell patch clamp, HEK293T, mean ± SEM, n = 3-8, read-out: IC50 on rKv4.2 WT
T1 construct: expressed in transfected cells; host or cells: HEK293T
T1 sequence (Q63881 1-630): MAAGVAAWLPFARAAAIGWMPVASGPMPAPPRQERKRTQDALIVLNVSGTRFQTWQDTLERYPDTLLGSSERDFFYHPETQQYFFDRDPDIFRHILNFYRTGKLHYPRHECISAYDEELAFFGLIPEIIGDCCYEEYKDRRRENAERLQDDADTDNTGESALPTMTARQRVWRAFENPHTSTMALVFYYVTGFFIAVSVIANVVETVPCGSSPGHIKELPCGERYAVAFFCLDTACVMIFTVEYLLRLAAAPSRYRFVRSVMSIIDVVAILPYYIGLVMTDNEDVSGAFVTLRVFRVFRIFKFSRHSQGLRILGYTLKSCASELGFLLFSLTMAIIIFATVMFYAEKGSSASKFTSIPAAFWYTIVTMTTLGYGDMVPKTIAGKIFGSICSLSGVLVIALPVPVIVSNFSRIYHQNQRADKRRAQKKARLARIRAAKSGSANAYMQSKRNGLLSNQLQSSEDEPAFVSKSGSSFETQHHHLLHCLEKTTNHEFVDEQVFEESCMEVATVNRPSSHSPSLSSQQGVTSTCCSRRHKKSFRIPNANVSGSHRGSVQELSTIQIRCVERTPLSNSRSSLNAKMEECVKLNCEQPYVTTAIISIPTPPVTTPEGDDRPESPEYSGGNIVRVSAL

hNav1.7 = molecular target: T2, hNav1.7 (Homo sapiens, UniProt Q15858); assay: cell-based; conditions: whole-cell patch clamp, HEK293T, mean ± SEM, this study, read-out: IC50 on hNav1.7
T2 construct: expressed in transfected cells; host or cells: HEK293T
T2 sequence (O60939 30-215): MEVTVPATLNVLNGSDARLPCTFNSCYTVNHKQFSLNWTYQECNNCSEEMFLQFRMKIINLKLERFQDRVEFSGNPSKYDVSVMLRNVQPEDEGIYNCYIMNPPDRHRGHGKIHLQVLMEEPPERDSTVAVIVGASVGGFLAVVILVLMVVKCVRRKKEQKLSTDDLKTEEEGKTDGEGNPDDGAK
T2 sequence (Q15858 other isoform, or with tags, fused parts or gaps): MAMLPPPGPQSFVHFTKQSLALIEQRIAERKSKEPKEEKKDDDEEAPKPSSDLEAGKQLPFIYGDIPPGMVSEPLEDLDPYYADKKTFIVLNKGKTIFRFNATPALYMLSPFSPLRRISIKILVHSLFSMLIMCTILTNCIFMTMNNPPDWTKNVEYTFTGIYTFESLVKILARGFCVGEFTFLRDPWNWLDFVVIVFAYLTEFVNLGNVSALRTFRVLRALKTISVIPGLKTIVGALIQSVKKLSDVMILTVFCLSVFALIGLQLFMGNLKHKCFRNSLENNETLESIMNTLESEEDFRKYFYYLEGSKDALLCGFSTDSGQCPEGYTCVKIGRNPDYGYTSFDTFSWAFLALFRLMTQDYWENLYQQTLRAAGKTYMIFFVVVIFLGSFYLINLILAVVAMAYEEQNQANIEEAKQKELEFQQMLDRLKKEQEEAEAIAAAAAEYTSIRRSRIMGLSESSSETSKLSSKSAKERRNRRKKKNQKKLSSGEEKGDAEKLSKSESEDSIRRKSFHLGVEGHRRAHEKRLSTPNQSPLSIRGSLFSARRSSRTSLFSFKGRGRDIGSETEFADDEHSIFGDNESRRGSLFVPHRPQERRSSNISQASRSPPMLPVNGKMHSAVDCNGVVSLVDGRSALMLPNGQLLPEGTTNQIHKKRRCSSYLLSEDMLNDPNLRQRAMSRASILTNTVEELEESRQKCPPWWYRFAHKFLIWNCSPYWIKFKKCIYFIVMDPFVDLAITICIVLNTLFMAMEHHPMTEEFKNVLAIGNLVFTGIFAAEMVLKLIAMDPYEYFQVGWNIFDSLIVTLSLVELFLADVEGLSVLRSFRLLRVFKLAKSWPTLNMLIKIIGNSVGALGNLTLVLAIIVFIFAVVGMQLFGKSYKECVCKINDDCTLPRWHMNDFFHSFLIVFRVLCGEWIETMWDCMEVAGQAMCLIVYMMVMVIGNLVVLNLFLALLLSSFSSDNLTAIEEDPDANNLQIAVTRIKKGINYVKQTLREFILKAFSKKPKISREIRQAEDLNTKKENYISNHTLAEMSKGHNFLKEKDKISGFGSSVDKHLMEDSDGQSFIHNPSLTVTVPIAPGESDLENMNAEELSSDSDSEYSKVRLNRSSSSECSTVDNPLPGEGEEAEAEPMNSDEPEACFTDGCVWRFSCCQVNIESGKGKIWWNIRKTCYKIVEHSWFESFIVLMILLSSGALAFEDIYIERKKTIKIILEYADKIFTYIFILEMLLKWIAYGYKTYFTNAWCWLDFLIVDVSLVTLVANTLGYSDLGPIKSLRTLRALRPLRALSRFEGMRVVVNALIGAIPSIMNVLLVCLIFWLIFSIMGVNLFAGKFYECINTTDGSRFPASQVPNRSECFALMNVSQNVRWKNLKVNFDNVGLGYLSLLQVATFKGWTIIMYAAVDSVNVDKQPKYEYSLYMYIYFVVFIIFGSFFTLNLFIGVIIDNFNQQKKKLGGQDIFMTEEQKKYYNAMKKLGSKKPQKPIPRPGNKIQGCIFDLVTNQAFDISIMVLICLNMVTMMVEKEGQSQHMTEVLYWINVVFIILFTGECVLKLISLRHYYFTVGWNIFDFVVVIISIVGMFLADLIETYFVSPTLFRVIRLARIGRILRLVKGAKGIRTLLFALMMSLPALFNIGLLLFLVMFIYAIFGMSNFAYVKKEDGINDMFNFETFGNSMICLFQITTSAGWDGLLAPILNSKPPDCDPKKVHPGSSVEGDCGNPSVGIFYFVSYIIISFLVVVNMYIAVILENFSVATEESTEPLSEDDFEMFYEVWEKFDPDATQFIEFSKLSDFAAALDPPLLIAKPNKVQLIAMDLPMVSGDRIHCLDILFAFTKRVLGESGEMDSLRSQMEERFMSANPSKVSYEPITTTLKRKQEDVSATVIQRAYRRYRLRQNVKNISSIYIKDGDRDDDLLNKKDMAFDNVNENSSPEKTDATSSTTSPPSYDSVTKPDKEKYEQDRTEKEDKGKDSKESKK
T2 sequence (Q07699 19-218, further chain): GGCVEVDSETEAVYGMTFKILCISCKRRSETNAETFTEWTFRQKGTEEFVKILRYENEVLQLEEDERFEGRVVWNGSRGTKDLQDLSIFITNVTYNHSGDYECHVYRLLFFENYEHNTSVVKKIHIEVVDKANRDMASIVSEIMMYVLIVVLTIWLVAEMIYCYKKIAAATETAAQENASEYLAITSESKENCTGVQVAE

| SMILES | IC50 (rKv4.2; SEM) | further results |
| --- | --- | --- |
| CC(C)C[C@H](NC(=O)[C@H](Cc1ccc(O)cc1)NC(=O)[C@@H](NC(=O)[C@H](CCCCN)NC(=O)[C@@H]1CSSC[C@@H]2NC(=O)[C@H](CCC(=O)O)NC(=O)[C@H](CC(N)=O)NC(=O)[C@H](CCCCN)NC(=O)CNC(=O)[C@@H]3CCCN3C(=O)[C@H]([C@@H](C)O)NC(=O)[C@@H]3CSSC[C@H](NC(=O)[C@H](C)NC(=O)[C@H](Cc4ccc(O)cc4)NC(=O)[C@H](CC(N)=O)NC(=O)[C@@H]4CCCN4C(=O)[C@H](CSSC[C@H](NC(=O)CN)C(=O)N[C@@H](CCCCN)C(=O)NCC(=O)N[C@@H](Cc4ccccc4)C(=O)NCC(=O)N[C@@H](CC(=O)O)C(=O)N[C@@H](CO)C(=O)N3)NC2=O)C(=O)N[C@@H](CO)C(=O)N[C@@H](CO)C(=O)N[C@@H](C)C(=O)N[C@@H](Cc2c[nH]cn2)C(=O)N[C@@H](CCCCN)C(=O)N[C@@H](Cc2c[nH]c3ccccc23)C(=O)N1)C(C)C)C(N)=O [K25A] (H-GCKGFGDSCTPGKNECCPNYACSSAHKWCKVYL-NH2; disulfide 2-17, 9-22, 16-29) |  | IC50 (rKv4.2): > 20 µM; IC50 (hNav1.7; SEM): 2 ± 0.332 µM |
| CC(C)[C@H](NC(=O)[C@H](CCCCN)NC(=O)[C@@H]1CSSC[C@@H]2NC(=O)[C@H](CCC(=O)O)NC(=O)[C@H](CC(N)=O)NC(=O)[C@H](CCCCN)NC(=O)CNC(=O)[C@@H]3CCCN3C(=O)[C@H]([C@@H](C)O)NC(=O)[C@@H]3CSSC[C@H](NC(=O)[C@H](C)NC(=O)[C@H](Cc4ccc(O)cc4)NC(=O)[C@H](CC(N)=O)NC(=O)[C@@H]4CCCN4C(=O)[C@H](CSSC[C@H](NC(=O)CN)C(=O)N[C@@H](CCCCN)C(=O)NCC(=O)N[C@@H](Cc4ccccc4)C(=O)NCC(=O)N[C@@H](CC(=O)O)C(=O)N[C@@H](CO)C(=O)N3)NC2=O)C(=O)N[C@@H](CO)C(=O)N[C@@H](CO)C(=O)N[C@@H](CCCCN)C(=O)N[C@@H](Cc2c[nH]cn2)C(=O)N[C@@H](CCCCN)C(=O)N[C@@H](Cc2c[nH]c3ccccc23)C(=O)N1)C(=O)N[C@@H](Cc1ccc(O)cc1)C(=O)N[C@@H](CCCCN)C(N)=O [L33K] (H-GCKGFGDSCTPGKNECCPNYACSSKHKWCKVYK-NH2; disulfide 2-17, 9-22, 16-29) | 20 ± 4 µM | IC50 (hNav1.7): > 10 µM |
| CC(C)C[C@H](NC(=O)[C@H](Cc1ccc(O)cc1)NC(=O)[C@@H](NC(=O)[C@H](CCCCN)NC(=O)[C@@H]1CSSC[C@@H]2NC(=O)[C@H](CCC(=O)O)NC(=O)[C@H](CC(N)=O)NC(=O)[C@H](CCCCN)NC(=O)CNC(=O)[C@@H]3CCCN3C(=O)[C@H]([C@@H](C)O)NC(=O)[C@@H]3CSSC[C@H](NC(=O)[C@H](C)NC(=O)[C@H](Cc4ccc(O)cc4)NC(=O)[C@H](CC(C)C)NC(=O)[C@@H]4CCCN4C(=O)[C@H](CSSC[C@H](NC(=O)CN)C(=O)N[C@@H](CCCCN)C(=O)NCC(=O)N[C@@H](Cc4ccccc4)C(=O)NCC(=O)N[C@@H](CC(=O)O)C(=O)N[C@@H](CO)C(=O)N3)NC2=O)C(=O)N[C@@H](CO)C(=O)N[C@@H](CO)C(=O)N[C@@H](CCCCN)C(=O)N[C@@H](Cc2c[nH]cn2)C(=O)N[C@@H](CCCCN)C(=O)N[C@@H](Cc2c[nH]c3ccccc23)C(=O)N1)C(C)C)C(N)=O [N19L] (H-GCKGFGDSCTPGKNECCPLYACSSKHKWCKVYL-NH2; disulfide 2-17, 9-22, 16-29) | 0.042 ± 0.004 µM |  |
| CC(C)C[C@H](NC(=O)[C@H](Cc1ccc(O)cc1)NC(=O)[C@@H](NC(=O)[C@H](CCCCN)NC(=O)[C@@H]1CSSC[C@@H]2NC(=O)[C@H](CCC(=O)O)NC(=O)[C@H](CC(N)=O)NC(=O)[C@H](CCCCN)NC(=O)CNC(=O)[C@@H]3CCCN3C(=O)[C@H]([C@@H](C)O)NC(=O)[C@@H]3CSSC[C@H](NC(=O)[C@H](C)NC(=O)[C@H](Cc4ccc(O)cc4)NC(=O)[C@H](CC(N)=O)NC(=O)[C@H](C)NC(=O)[C@H](CSSC[C@H](NC(=O)CN)C(=O)N[C@@H](CCCCN)C(=O)NCC(=O)N[C@@H](Cc4ccccc4)C(=O)NCC(=O)N[C@@H](CC(=O)O)C(=O)N[C@@H](CO)C(=O)N3)NC2=O)C(=O)N[C@@H](CO)C(=O)N[C@@H](CO)C(=O)N[C@@H](CCCCN)C(=O)N[C@@H](Cc2c[nH]cn2)C(=O)N[C@@H](CCCCN)C(=O)N[C@@H](Cc2c[nH]c3ccccc23)C(=O)N1)C(C)C)C(N)=O [P18A] (H-GCKGFGDSCTPGKNECCANYACSSKHKWCKVYL-NH2; disulfide 2-17, 9-22, 16-29) | 0.14 ± 0.043 µM |  |
| CC(C)C[C@H](NC(=O)[C@H](Cc1ccc(O)cc1)NC(=O)[C@@H](NC(=O)[C@H](CCCCN)NC(=O)[C@@H]1CSSC[C@@H]2NC(=O)[C@H](CCC(=O)O)NC(=O)[C@H](CC(N)=O)NC(=O)[C@H](CCCCN)NC(=O)CNC(=O)[C@@H]3CCCN3C(=O)[C@H]([C@@H](C)O)NC(=O)[C@@H]3CSSC[C@H](NC(=O)[C@H](C)NC(=O)[C@H](Cc4ccc(O)cc4)NC(=O)[C@H](CC(N)=O)NC(=O)[C@H](CCCCN)NC(=O)[C@H](CSSC[C@H](NC(=O)CN)C(=O)N[C@@H](CCCCN)C(=O)NCC(=O)N[C@@H](Cc4ccccc4)C(=O)NCC(=O)N[C@@H](CC(=O)O)C(=O)N[C@@H](CO)C(=O)N3)NC2=O)C(=O)N[C@@H](CO)C(=O)N[C@@H](CO)C(=O)N[C@@H](CCCCN)C(=O)N[C@@H](Cc2c[nH]cn2)C(=O)N[C@@H](CCCCN)C(=O)N[C@@H](Cc2c[nH]c3ccccc23)C(=O)N1)C(C)C)C(N)=O [P18K] (H-GCKGFGDSCTPGKNECCKNYACSSKHKWCKVYL-NH2; disulfide 2-17, 9-22, 16-29) | 0.167 ± 0.117 µM |  |
| CC(C)C[C@H](NC(=O)[C@H](Cc1ccc(O)cc1)NC(=O)[C@@H](NC(=O)[C@H](CCCCN)NC(=O)[C@@H]1CSSC[C@@H]2NC(=O)[C@H](CCC(=O)O)NC(=O)[C@H](CC(N)=O)NC(=O)[C@H](CCCCN)NC(=O)CNC(=O)[C@@H]3CCCN3C(=O)[C@H](CCC(=O)O)NC(=O)[C@@H]3CSSC[C@H](NC(=O)[C@H](C)NC(=O)[C@H](Cc4ccc(O)cc4)NC(=O)[C@H](CC(N)=O)NC(=O)[C@@H]4CCCN4C(=O)[C@H](CSSC[C@H](NC(=O)CN)C(=O)N[C@@H](CCCCN)C(=O)NCC(=O)N[C@@H](Cc4ccccc4)C(=O)NCC(=O)N[C@@H](CC(=O)O)C(=O)N[C@@H](CO)C(=O)N3)NC2=O)C(=O)N[C@@H](CO)C(=O)N[C@@H](CO)C(=O)N[C@@H](CCCCN)C(=O)N[C@@H](Cc2c[nH]cn2)C(=O)N[C@@H](CCCCN)C(=O)N[C@@H](Cc2c[nH]c3ccccc23)C(=O)N1)C(C)C)C(N)=O [T10E] (H-GCKGFGDSCEPGKNECCPNYACSSKHKWCKVYL-NH2; disulfide 2-17, 9-22, 16-29) | 0.452 ± 0.221 µM |  |
| CC(C)C[C@H](NC(=O)[C@H](Cc1ccc(O)cc1)NC(=O)[C@@H](NC(=O)[C@H](CCCCN)NC(=O)[C@@H]1CSSC[C@@H]2NC(=O)[C@H](CCC(=O)O)NC(=O)[C@H](CC(N)=O)NC(=O)[C@H](CCCCN)NC(=O)CNC(=O)[C@@H]3CCCN3C(=O)[C@H]([C@@H](C)O)NC(=O)[C@@H]3CSSC[C@H](NC(=O)[C@H](C)NC(=O)[C@H](Cc4ccc(O)cc4)NC(=O)[C@H](CC(N)=O)NC(=O)[C@@H]4CCCN4C(=O)[C@H](CSSC[C@H](NC(=O)CN)C(=O)N[C@@H](CCCCN)C(=O)NCC(=O)N[C@@H](Cc4ccccc4)C(=O)NCC(=O)N[C@@H](CC(=O)O)C(=O)N[C@@H](CO)C(=O)N3)NC2=O)C(=O)N[C@@H](CO)C(=O)N[C@@H](CO)C(=O)N[C@@H](CCCCN)C(=O)N[C@@H](Cc2c[nH]cn2)C(=O)N[C@@H](CCCCN)C(=O)N[C@@H](C)C(=O)N1)C(C)C)C(N)=O [W28A] (H-GCKGFGDSCTPGKNECCPNYACSSKHKACKVYL-NH2; disulfide 2-17, 9-22, 16-29; N-terminus and C-terminus assumed) |  | inhibition of rKv4.2, in words (rKv4.2; analogue compared with its parent toxin): dramatically decreased inhibition |
